Drawing on US20030187037A1, “Acetamide derivatives and the use thereof as inhibitors of coagulation factors xa and viia” (priority 2000, published 2003), this text covers IC50 for four molecules.

In one test the target is factor Xa, human (Homo sapiens, UniProt P00742). Put plainly: Inhibition of factor Xa (IC50, headed 'Affinity to Receptors'). The format is biochemical. From the text:
The inhibition of factor Xa by the compounds according to the invention and the measurement of the anticoagulant and antithrombotic activity can be determined by conventional in-vitro or in-vivo methods. A suitable method is described, for example, by J. Hauptmann et al. in Thrombosis and Haemostasis 1990, 63, 220-223.
The inhibition of factor Xa can be measured, for example, by the method of T. Hara et al. in Thromb. Haemostas. 1994, 71, 314-319.

The next test concerns the target TF/VIIa (Homo sapiens, UniProt P08709). Put plainly: Inhibition of TF/VIIa (IC50, headed 'Affinity to Receptors'). Type of test: biochemical. From the text: The inhibition of factor VIIa by the compounds according to the invention and the measurement of the anticoagulant and antithrombotic activity can be determined by conventional in-vitro or in-vivo methods. A conventional method for the measurement of the inhibition of factor VIIa is described, for example, by H. F. Ronning et al. in Thrombosis Research 1996, 84, 73-81.

factor Xa, human, sequence (P00742 235-488 limits assumed): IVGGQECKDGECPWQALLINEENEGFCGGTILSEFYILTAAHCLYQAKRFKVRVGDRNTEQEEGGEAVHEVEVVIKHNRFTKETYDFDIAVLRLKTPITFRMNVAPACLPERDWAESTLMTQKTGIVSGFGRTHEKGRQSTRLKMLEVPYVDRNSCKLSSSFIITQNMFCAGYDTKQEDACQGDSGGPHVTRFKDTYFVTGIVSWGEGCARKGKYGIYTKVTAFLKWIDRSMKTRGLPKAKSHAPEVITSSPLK
factor Xa, human, sequence (P00742 41-179 partner limits assumed): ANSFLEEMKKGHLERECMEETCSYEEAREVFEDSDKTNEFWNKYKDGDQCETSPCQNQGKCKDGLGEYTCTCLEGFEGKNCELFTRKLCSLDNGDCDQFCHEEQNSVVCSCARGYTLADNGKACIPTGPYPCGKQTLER
TF/VIIa, sequence (P08709 213-466 limits assumed): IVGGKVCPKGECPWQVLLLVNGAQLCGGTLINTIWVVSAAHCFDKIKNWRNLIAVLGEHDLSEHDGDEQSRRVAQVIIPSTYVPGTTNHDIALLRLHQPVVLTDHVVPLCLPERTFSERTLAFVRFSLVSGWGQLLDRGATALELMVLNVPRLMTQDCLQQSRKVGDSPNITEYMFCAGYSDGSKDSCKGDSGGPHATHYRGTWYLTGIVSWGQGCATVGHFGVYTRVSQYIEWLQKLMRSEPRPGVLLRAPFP
TF/VIIa, sequence (P08709 61-212 partner limits assumed): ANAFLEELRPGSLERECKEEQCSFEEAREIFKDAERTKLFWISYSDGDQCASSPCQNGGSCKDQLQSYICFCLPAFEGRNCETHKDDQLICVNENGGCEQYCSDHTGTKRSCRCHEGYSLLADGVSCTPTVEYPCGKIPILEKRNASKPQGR
TF/VIIa, sequence (P13726 33-295 partner): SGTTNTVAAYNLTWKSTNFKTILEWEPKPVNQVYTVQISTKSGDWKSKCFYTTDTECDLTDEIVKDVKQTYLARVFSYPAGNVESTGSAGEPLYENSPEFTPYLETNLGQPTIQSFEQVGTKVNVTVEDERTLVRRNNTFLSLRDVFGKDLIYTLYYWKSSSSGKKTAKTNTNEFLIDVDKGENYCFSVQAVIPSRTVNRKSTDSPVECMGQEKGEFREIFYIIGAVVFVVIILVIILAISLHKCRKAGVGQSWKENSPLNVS

One may read the IC50 as the midpoint of a concentration-inhibition curve. A high value points to weaker potency. Consider `CCCN(Cc1cccc(C(=N)N)c1)C(=O)Cc1ccc(-c2ccccc2S(N)(=O)=O)cc1` [Example 3.3, N-3-amidinobenzyl-N-propyl-2-(2′-sulfamoylbiphenyl-4-yl)acetamide], for which the IC50 against factor Xa, human worked out at 2000 nM; on TF/VIIa, 900 nM.
With `CCCN(Cc1cccc(C(=N)N)c1)C(=O)Cc1ccc(-c2ccccc2S(C)(=O)=O)cc1` [Example 4.3, N-(3-amidinobenzyl)-N-propyl-2-(2′-methylsulfonylbiphenyl-4-yl)acetamide], the IC50 was 1000 nM on factor Xa, human and 700 nM against TF/VIIa.
In the case of `CS(=O)(=O)c1ccccc1-c1ccc(CC(=O)N(Cc2cccc(C(=N)N)c2)c2ccccc2)cc1` [N-(3-amidinobenzyl)-N-phenyl-2-(2′-methylsulfonylbiphenyl-4-yl)acetamide], the IC50 at factor Xa, human came to 550 nM; at TF/VIIa it was 650 nM.
Taken in the same sequence, the figures for `N=C(N)c1cccc(CN(C(=O)Cc2ccc(-c3ccccc3S(N)(=O)=O)cc2)c2ccccc2)c1` [N-(3-amidinobenzyl)-N-phenyl-2-(2′-sulfamoylbiphenyl-4-yl)acetamide] were 2000 nM and 1500 nM.
